Like-named read-outs stand apart in the source and are kept apart here.

The text below walks through data of US7968080B2, “Somatostatin analogs with inhibitory activity to growth hormone release” (The Regents of the University of California, priority 2003, dated 2011).

In one assay the test system is SST 1-5. The following applies: background statement; cited from earlier work.
For assay [1], the system named is somatostatin receptors hsst1-5. The assay is described as follows: Binding potencies and selectivities at somatostatin receptors hsst1-5. Further details: species or system human.
The next assay has as its target hsst2 (Homo sapiens, UniProt P30874). Kind of assay: Binding of beta-MeTrp analogs of L-363,301 to hsst2.
A further assay has as its target SST1 (Homo sapiens, UniProt P30872). Kind of assay: Binding affinities of SS-14, Sandostatin and RC-121 (Table 1). The following applies: read-out: Ki ± SEM, SST1.
In a further assay the target is SST4 (Homo sapiens, UniProt P31391). The description is as above. To be noted: read-out: Ki ± SEM, SST4.
Another assay addresses SST3 (Homo sapiens, UniProt P32745). Described as above. To be noted: read-out: Ki ± SEM, SST3.

Sequence of hsst2 (P30874 whole entry): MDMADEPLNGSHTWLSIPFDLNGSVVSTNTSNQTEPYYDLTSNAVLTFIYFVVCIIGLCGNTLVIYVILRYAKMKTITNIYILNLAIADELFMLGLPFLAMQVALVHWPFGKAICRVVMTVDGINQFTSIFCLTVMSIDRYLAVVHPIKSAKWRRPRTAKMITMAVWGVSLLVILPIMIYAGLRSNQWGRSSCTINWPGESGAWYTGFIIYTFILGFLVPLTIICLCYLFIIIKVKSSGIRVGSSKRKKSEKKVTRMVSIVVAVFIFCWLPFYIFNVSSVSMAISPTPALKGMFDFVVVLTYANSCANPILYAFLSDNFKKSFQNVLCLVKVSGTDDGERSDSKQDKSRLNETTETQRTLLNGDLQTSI
Sequence of SST3 (P32745 whole entry, species assumed): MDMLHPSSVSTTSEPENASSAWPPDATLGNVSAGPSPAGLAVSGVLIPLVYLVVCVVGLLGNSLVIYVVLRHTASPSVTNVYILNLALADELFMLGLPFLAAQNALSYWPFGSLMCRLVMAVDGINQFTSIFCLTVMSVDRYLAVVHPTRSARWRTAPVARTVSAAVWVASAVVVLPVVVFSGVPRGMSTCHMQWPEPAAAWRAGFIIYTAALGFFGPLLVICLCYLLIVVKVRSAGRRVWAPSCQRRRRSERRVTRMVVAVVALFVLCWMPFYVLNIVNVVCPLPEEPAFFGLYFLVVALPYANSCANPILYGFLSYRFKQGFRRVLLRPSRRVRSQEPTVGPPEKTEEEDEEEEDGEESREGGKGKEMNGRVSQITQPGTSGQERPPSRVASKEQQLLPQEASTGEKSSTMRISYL
Sequence of SST4 (P31391 whole entry, species assumed): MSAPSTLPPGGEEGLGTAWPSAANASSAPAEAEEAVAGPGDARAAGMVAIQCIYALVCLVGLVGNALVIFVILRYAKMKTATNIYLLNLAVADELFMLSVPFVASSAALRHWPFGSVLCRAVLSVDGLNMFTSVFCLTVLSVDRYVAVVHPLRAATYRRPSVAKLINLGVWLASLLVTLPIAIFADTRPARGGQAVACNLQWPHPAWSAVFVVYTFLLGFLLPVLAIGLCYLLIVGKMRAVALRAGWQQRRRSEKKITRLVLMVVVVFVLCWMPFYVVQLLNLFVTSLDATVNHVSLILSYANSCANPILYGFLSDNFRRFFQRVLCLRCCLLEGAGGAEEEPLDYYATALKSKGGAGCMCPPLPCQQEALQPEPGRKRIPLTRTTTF
Sequence of SST1 (P30872 whole entry, species assumed): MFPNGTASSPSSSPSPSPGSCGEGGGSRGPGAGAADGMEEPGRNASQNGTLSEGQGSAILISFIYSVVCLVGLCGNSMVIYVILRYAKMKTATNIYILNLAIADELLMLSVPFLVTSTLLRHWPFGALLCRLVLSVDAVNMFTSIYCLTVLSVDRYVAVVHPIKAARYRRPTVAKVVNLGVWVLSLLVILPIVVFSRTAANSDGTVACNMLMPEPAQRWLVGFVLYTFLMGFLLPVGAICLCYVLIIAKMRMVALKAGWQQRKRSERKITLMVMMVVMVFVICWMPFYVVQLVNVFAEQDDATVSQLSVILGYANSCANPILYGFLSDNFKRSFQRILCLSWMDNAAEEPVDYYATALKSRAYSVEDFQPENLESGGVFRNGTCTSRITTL

`C[C@@H](O)[C@@H]1NC(=O)[C@H](CCCCN)NC(=O)[C@@H](Cc2c[nH]c3ccccc23)NC(=O)[C@H](Cc2ccccc2)NC(=O)[C@@H](NC(=O)[C@H](N)Cc2ccccc2)CSSC[C@@H](C(=O)N[C@H](CO)[C@@H](C)O)NC1=O` [Sandostatin, D-Phe-c[Cys-Phe-D-Trp-Lys-Thr-Cys]-Thr-ol]: in the assay with SST 1-5, the “interaction with SS receptor subtypes (background)” value was “interact significantly with three of the receptor subtypes, i.e. SST2, SST3 and SST5”.
Turning to c[Pro-Phe-(2R,3R)-β-MeTrp-Lys-Thr-Phe], in assay [1], the “potency relative to parent peptide L-363,301” value is “much less active” and the “selectivity among hsst1-5” value is recorded as “highly selective for hsst2”. Moreover, the “binding to receptor hsst2” value on hsst2 was “nanomolar range”.
In the case of c[Pro-Phe-(2R,3S)-β-MeTrp-Lys-Thr-Phe], the “potency relative to parent peptide L-363,301” value in assay [1] is “more potent than the parent peptide”. Besides, the “selectivity among hsst1-5” value in assay [1] is listed as “highly selective for hsst2”. In addition, the figures for the “binding to receptor hsst2” value on hsst2 and on hsst2 (listed as (2R,3S)-β-MeTrp diastereomer) were “nanomolar range” and “bind very well to hsst2”, respectively.
The Ki is a dissociation constant, usually derived from enzyme kinetics or from competition with a known ligand. Consider `CC(C)[C@@H]1NC(=O)[C@H](CCCCN)NC(=O)[C@@H](Cc2c[nH]c3ccccc23)NC(=O)[C@H](Cc2ccc(O)cc2)NC(=O)[C@@H](NC(=O)[C@H](N)Cc2ccccc2)CSSC[C@@H](C(=O)N[C@H](C(N)=O)[C@@H](C)O)NC1=O` [RC-121, D-Phe-c[Cys-Tyr-D-Trp-Lys-Val-Cys]-Thr-NH2], for which the Ki at SST1, on SST4 and at SST3 was greater than 1 µM throughout.
In the case of “SS-28: N-terminally extended version of SS-14 that has an additional 14 amino acid residues”, in the assay with SST 1-5, the “interaction with SS receptor subtypes (background)” value is reported as “high affinity”.
